# Target: SERT (Rattus norvegicus, UniProt P31652)
# Assay type: binding
# Details: selectivity, ratio of Ki values
# SERT, sequence (P31652 whole entry): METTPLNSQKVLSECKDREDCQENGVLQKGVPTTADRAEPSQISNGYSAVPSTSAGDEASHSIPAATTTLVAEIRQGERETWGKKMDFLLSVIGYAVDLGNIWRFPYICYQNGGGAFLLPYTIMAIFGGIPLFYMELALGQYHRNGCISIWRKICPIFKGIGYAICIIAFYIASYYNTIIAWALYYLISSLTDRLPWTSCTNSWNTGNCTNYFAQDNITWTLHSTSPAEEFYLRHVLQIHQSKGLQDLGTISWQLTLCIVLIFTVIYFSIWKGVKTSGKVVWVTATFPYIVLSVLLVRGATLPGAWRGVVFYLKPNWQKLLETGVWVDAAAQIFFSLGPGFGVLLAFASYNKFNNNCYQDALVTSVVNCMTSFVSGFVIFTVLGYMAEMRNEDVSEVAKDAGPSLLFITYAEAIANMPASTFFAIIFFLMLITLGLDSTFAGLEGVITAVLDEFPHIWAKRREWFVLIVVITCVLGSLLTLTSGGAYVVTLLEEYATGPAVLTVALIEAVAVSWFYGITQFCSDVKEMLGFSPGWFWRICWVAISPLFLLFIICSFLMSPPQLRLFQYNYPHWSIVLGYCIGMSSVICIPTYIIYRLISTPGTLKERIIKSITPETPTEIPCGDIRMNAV
smiles,measurement,value
Clc1ccc(CO[C@@]2(c3ccc(Cl)cc3)C[C@H]3CC[C@@H](C2)N3)cc1 [7f],NET/SERT,"23,700"
